From patent US9181253B2 (The United States of America, as represented by the …, priority 2008, dated 2015)

What was measured:
hA1AR [1] = biological target: T1, hA1AR (Homo sapiens (Human), UniProt P30542); assay: Radioligand membrane binding at hA1AR (Example 6); conditions: for (% inhibition) A1: percent inhibition of radioligand binding at 10 μM; for Ki: CHO cells expressing hA1AR, [3H]R-PIA, n = 3-5, read-out: Affinity Ki, nM A1; for inhibition at 10 µM: read-out: (% inhibition) A1
Method: (§1) In addition, 800 μg/mL Geneticin and 500 μg/mL hygromycin were added to the A2A media and to the A1 and A3 media, respectively. […] The concentration of protein was determined using a BCA Protein Assay Kit from Pierce Biotechnology (Rockford, Ill.).
(§2) Radioligand binding assays at A1, A2A, and A3ARs were performed according to the procedures described previously.
(§3) All of the filters were washed 3 times with Tris-HCl, pH 7.5. […] Filters for A3AR binding were counted using a PerkinElmer Cobra II γ-counter.
(§4) Binding and functional parameters were calculated using Prism 5.0 software (GraphPAD, San Diego, Calif., USA). IC50 values obtained from competition curves were converted to Ki values using the Cheng-Prusoff equation. Data were expressed as mean±standard error.

hA2AAR = hA2AAR (Homo sapiens (Human), UniProt P29274); assay: Radioligand membrane binding at hA2AAR (Example 6); conditions: for (% inhibition) A2A: percent inhibition of radioligand binding at 10 μM; for Ki: HEK293 cells expressing hA2AAR, [3H]CGS21680, n = 3-5, read-out: Affinity Ki, nM A2A; for inhibition at 10 µM: read-out: (% inhibition) A2A
Chain of hA2AAR (P29274 whole entry): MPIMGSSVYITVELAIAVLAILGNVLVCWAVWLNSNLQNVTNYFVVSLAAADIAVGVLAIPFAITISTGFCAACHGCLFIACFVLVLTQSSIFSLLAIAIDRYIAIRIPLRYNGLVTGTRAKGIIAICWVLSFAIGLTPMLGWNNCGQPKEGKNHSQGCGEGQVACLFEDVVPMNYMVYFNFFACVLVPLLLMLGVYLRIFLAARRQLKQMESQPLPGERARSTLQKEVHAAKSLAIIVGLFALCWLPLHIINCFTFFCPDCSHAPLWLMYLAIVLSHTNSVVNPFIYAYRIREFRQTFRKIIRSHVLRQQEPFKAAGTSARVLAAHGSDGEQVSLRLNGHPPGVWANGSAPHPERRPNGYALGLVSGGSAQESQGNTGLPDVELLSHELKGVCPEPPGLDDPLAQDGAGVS
Method: as §1, §2, §3, §4

hA3AR = hA3AR (Homo sapiens (Human), UniProt P0DMS8); assay: Radioligand membrane binding at hA3AR (Example 6); conditions: for Ki: CHO cells expressing hA3AR, [125I]I-AB-MECA, n = 3-5, read-out: Affinity Ki, nM A3
Chain of hA3AR (P0DMS8 whole entry): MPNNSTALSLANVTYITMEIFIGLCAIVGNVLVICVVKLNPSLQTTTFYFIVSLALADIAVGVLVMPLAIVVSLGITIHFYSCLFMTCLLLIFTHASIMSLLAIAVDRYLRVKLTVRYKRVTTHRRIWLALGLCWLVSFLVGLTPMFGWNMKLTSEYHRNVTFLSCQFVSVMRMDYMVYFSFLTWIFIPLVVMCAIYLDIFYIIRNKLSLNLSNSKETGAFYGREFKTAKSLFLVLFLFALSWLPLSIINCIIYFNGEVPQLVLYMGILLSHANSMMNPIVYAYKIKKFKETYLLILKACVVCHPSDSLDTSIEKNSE

hA1AR [2] = biological target: T1, hA1AR; assay: A1AR functional assay, inhibition of forskolin-stimulated cyclic AMP production in AR-transfected CHO cells; assay type: cell-based; conditions: for inhibition at 10 µM: CHO, read-out: % Inhibition, cyclic AMP A1; for % Inhibition, cyclic AMP A1: maximal efficacy at 10 μM, in comparison to effect (100%) of full agonist CPA at 10 μM, n = 3-5

T1 sequence (P30542 whole entry): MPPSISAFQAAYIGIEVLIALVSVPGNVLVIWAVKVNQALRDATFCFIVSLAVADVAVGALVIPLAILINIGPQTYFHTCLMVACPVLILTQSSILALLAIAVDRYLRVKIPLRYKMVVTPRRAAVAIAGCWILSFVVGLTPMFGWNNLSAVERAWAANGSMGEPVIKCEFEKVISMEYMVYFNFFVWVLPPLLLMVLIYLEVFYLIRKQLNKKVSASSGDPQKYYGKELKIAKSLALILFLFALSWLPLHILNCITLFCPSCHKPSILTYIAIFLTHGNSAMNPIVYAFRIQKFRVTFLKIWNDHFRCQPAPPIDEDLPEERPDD

Row | Compound | Ki (hA1AR [1]) | Ki (hA2AAR) | Ki (hA3AR) | inhibition at 10 µM (hA1AR [2]) | further results
1 | O[C@@H]1[C@H](O)[C@@H]2C[C@@H]2[C@H]1n1cnc2c(NC(C3CCCC3)C3CCCC3)nc(Cl)nc21 [Compound 211, (1R,2R,3S,4R,55)-4-(2-Chloro-6-(dicyclopentylmethylamino)-9H-purin-9-yl)bicyclo[3.1.0]hexane-2,3-diol] |  |  |  |  | (% inhibition) A1 (hA1AR [1]): (34 ± 3%); (% inhibition) A2A (hA2AAR): (13 ± 3%); (% inhibition) A3 (hA3AR; percent inhibition of radioligand binding at 10 μM): (48 ± 2%)
2 | O[C@@H]1[C@H](O)[C@@H]2C[C@@H]2[C@H]1n1cnc2c(NCC(C3CC3)C3CC3)nc(Cl)nc21 [Compound 207, (1R,2R,3S,4R,5S)-4-(2-Chloro-6-(2,2-dicyclopropylethylamino)-9H-purin-9-yl)bicyclo[3.1.0]hexane-2,3-diol] | 780 ± 100 nM |  | 670 ± 10 nM | -9 ± 4.1% | 
3 | OC[C@H]1O[C@@H](n2cnc3c(NC4CCCC4)ncnc32)[C@H](O)[C@@H]1O [Compound 235a, N^6-cyclopentyladenosine, reference compound] |  |  |  |  | % Inhibition, cyclic AMP A1 (hA1AR [2]): 100 ± 2.6%
4 | O[C@@H]1[C@H](O)[C@@H]2C[C@@H]2[C@H]1n1cnc2c(N[C@@H](c3ccccc3)C3CC3)nc(Cl)nc21 [Compound 220, (1R,2R,3S,4R,5S)-4-(2-Chloro-6-((R)-cyclopropylphenylmethylamino)-9H-purin-9-yl)bicyclo[3.1.0]hexane-2,3-diol] | 3000 ± 440 nM |  |  |  | (% inhibition) A2A (hA2AAR): (46 ± 4%); % Inhibition, cyclic AMP A1 (hA1AR [2]): −7.4 ± 6.0%
5 | O[C@@H]1[C@H](O)[C@@H]2C[C@@H]2[C@H]1n1cnc2c(NC3CCCCC3)nc(Cl)nc21 [Compound 110, (1R,2R,3S,4R,5S)-4-(2-Chloro-6-(cyclohexylamino)-9H-purin-9-yl)bicyclo[3.1.0]hexane-2,3-diol] | 140 ± 10 nM | 2720 ± 450 nM | 500 ± 120 nM | 38 ± 17.6% | 
6 | O[C@@H]1[C@H](O)[C@@H]2C[C@@H]2[C@H]1n1cnc2c(N[C@H](c3ccccc3)C3CC3)nc(Cl)nc21 [Compound 221, (1R,2R,3S,4R,5S)-4-(2-Chloro-6-((S)-cyclopropylphenylmethylamino)-9H-purin-9-yl)bicyclo[3.1.0]hexane-2,3-diol] |  |  |  |  | (% inhibition) A1 (hA1AR [1]): (50 ± 5%); (% inhibition) A2A (hA2AAR): (36 ± 4%); % Inhibition, cyclic AMP A1 (hA1AR [2]): −2.4 ± 3.7%
7 | O[C@@H]1[C@H](O)[C@@H]2C[C@@H]2[C@H]1n1cnc2c(N[C@H](C3CCC3)C3CC3)nc(Cl)nc21 [Compound 217, (1R,2R,3S,4R,5S)-4-(2-Chloro-6-((S)-cyclopropylcyclobutylmethylamino)-9H-purin-9-yl)bicyclo[3.1.0]hexane-2,3-diol] | 120 ± 40 nM | 6450 ± 720 nM | 2790 ± 720 nM |  | % Inhibition, cyclic AMP A1 (hA1AR [2]): 18.1 ± 6.8%
8 | O[C@@H]1[C@H](O)[C@@H]2C[C@@H]2[C@H]1n1cnc2c(NC3CC3)nc(Cl)nc21 [Compound 108, (1R,2R,3S,4R,5S)-4-(2-Chloro-6-(cyclopropylamino)-9H-purin-9-yl)bicyclo[3.1.0]hexane-2,3-diol] | 210 ± 30 nM | 3700 ± 340 nM | 12.1 ± 3.4 nM | 79 ± 18.8% | 
9 | CC(Nc1nc(Cl)nc2c1ncn2[C@H]1[C@H](O)[C@H](O)[C@@H]2C[C@@H]21)C1CC1 (stereo partly drawn) [Compound 120, (1R,2R,3S,4R,5S)-4-(2-Chloro-6-(1-cyclopropylethylamino)-9H-purin-9-yl)bicyclo[3.1.0]hexane-2,3-diol] | 86.8 ± 23.7 nM |  | 110 ± 17 nM |  | (% inhibition) A2A (hA2AAR): (41%)
10 | O[C@@H]1[C@H](O)[C@@H]2C[C@@H]2[C@H]1n1cnc2c(NCc3cccc(OCCF)c3)nc(Cl)nc21 [Compound 124, (1R,2R,3S,4R,5S)-4-(2-chloro-6-(3-(2-fluoroethoxy)benzylamino)-9H-purin-9-yl)bicyclo[3.1.0]hexane-2,3-diol] |  |  | 15.2 ± 3 nM |  | inhibition at 10 µM (hA1AR [1]): 34%; inhibition at 10 µM (hA2AAR): 32%
11 | CCC(CC)Nc1nc(Cl)nc2c1ncn2[C@H]1[C@H](O)[C@H](O)[C@@H]2C[C@@H]21 [Compound 118, (1R,2R,3S,4R,5S)-4-(2-Chloro-6-(pentan-3-ylamino)-9H-purin-9-yl)bicyclo[3.1.0]hexane-2,3-diol] | 78.8 ± 15.6 nM | 3700 ± 300 nM | 52 ± 14 nM | 28.6 ± 3.8% | 
12 | O[C@@H]1[C@H](O)[C@@H]2C[C@@H]2[C@H]1n1cnc2c(NC3CCC3)nc(Cl)nc21 [Compound 109, (1R,2R,3S,4R,5S)-4-(2-Chloro-6-(cyclobutylamino)-9H-purin-9-yl)bicyclo[3.1.0]hexane-2,3-diol] | 51.6 ± 12.6 nM | 3020 ± 90 nM | 5.9 ± 0.5 nM |  | 
13 | O[C@@H]1[C@H](O)[C@@H]2C[C@@H]2[C@H]1n1cnc2c(NCc3cc(F)ccc3F)nc(Cl)nc21 [Compound 125, (1R,2R,3S,4R,5S)-4-(2-chloro-6-(2,5-difluorobenzylamino)-9H-purin-9-yl)bicyclo[3.1.0]hexane-2,3-diol] | 3580 ± 220 nM |  | 114 ± 45 nM |  | inhibition at 10 µM (hA2AAR): 46%
14 | O[C@@H]1[C@H](O)[C@@H]2C[C@@H]2[C@H]1n1cnc2c(NCc3ccccc3OCCF)nc(Cl)nc21 [Compound 123, (1R,2R,3S,4R,5S)-4-(2-chloro-6-(2-(2-fluoroethoxy)benzylamino)-9H-purin-9-yl)bicyclo[3.1.0]hexane-2,3-diol] |  |  | 10.3 ± 1.5 nM |  | 
15 | CCNc1nc(Cl)nc2c1ncn2[C@H]1[C@H](O)[C@H](O)[C@@H]2C[C@@H]21 [Compound 115, (1R,2R,3S,4R,5S)-4-(2-Chloro-6-(ethylamino)-9H-purin-9-yl)bicyclo[3.1.0]hexane-2,3-diol] | 930 ± 110 nM |  | 6.6 ± 1.6 nM |  | (% inhibition) A2A (hA2AAR): (11%)

The next lines start with results.

Row | Ki (hA1AR [1]) | Ki (hA2AAR) | Ki (hA3AR) | inhibition at 10 µM (hA1AR [2]) | Compound | further results
16 | 150 ± 50 nM | 3650 ± 370 nM | 1720 ± 140 nM | 20.8 ± 6.1% | CC(C)[C@H](Nc1nc(Cl)nc2c1ncn2[C@H]1[C@H](O)[C@H](O)[C@@H]2C[C@@H]21)C1CC1 [Compound 215, (1R,2R,3S,4R,5S)-4-(2-Chloro-6-((S)-1-cyclopropyl-2-methyl-propylamino)-9H-purin-9-yl)bicyclo[3.1.0]hexane-2,3-diol] | 
17 | 200 ± 30 nM | 4080 ± 170 nM | 236 ± 43 nM |  | (1R,2R,3S,4R,5S)-4-(2-Chloro-6-(exo-norbornyl)-9H-purin-9-yl)bicyclo[3.1.0]hexane-2,3-diol [Compound 114] | % Inhibition, cyclic AMP A1 (hA1AR [2]): 27.8 ± 6.2%
18 | 82.6 ± 15.8 nM | 2450 ± 90 nM | 315 ± 48 nM |  | (1R,2R,3S,4R,5S)-4-(2-Chloro-6-(endo-norbornyl)-9H-purin-9-yl)bicyclo[3.1.0]hexane-2,3-diol [Compound 113] | % Inhibition, cyclic AMP A1 (hA1AR [2]): 62.1 ± 18.5%
19 | 760 ± 110 nM |  | 1530 ± 60 nM | 40.1 ± 9% | O[C@@H]1[C@H](O)[C@@H]2C[C@@H]2[C@H]1n1cnc2c(NC3CCCCCCC3)nc(Cl)nc21 [Compound 112, (1R,2R,3S,4R,5S)-4-(2-Chloro-6-(cyclooctylamino)-9H-purin-9-yl)bicyclo[3.1.0]hexane-2,3-diol] | 
20 | 4790 ± 670 nM |  | 41.5 ± 1 nM |  | O[C@@H]1[C@H](O)[C@@H]2C[C@@H]2[C@H]1n1cnc2c(NCc3ccccc3F)nc(Cl)nc21 [Compound 122, (1R,2R,3S,4R,5S)-4-(2-Chloro-6-(2-fluorobenzylamino)-9H-purin-9-yl)bicyclo[3.1.0]hexane-2,3-diol] | 
21 | 68.4 ± 8.9 nM | 4410 ± 1090 nM | 8.9 ± 1.9 nM | 81 ± 21.1% | O[C@@H]1[C@H](O)[C@@H]2C[C@@H]2[C@H]1n1cnc2c(NCC3CC3)nc(Cl)nc21 [Compound 119, (1R,2R,3S,4R,5S)-4-(2-Chloro-6-(cyclopropylmethylamino)-9H-purin-9-yl)bicyclo[3.1.0]hexane-2,3-diol] | 
22 | 1260 ± 240 nM |  | 16.5 ± 2.8 nM |  | COc1ccc(F)c(F)c1CNc1nc(Cl)nc2c1ncn2[C@H]1[C@H](O)[C@H](O)[C@@H]2C[C@@H]21 [Compound 126, (1R,2R,3S,4R,5S)-4-(2-chloro-6-(2,3-difluoro-6-methoxybenzylamino)-9H-purin-9-yl)bicyclo[3.1.0]hexane-2,3-diol] | inhibition at 10 µM (hA2AAR): 38%
23 | 72.7 ± 28 nM |  | 32.4 ± 6.7 nM | 23.2 ± 2.6% | O[C@@H]1[C@H](O)[C@@H]2C[C@@H]2[C@H]1n1cnc2c(NCCCF)nc(Cl)nc21 [Compound 116, (1R,2R,3S,4R,5S)-4-(2-Chloro-6-(3-fluoropropylamino)-9H-purin-9-yl)bicyclo[3.1.0]hexane-2,3-diol] | 
24 | 230 ± 30 nM | 3930 ± 520 nM | 560 ± 90 nM | 48.1 ± 10.2% | O[C@@H]1[C@H](O)[C@@H]2C[C@@H]2[C@H]1n1cnc2c(NC3CCCCCC3)nc(Cl)nc21 [Compound 111, (1R,2R,3S,4R,5S)-4-(2-Chloro-6-(cycloheptylamino)-9H-purin-9-yl)bicyclo[3.1.0]hexane-2,3-diol] | 
25 | 1910 ± 310 nM | 7510 ± 690 nM | 40.4 ± 13.1 nM |  | OCc1cc(F)c(F)cc1CNc1nc(Cl)nc2c1ncn2[C@@]12C[C@H](O)[C@H](O)[C@@H]1C2 [Compound 128] | 
26 |  |  | 83.2 ± 35.7 nM |  | COc1cc(F)c(F)cc1CNc1nc(Cl)nc2c1ncn2[C@H]1[C@H](O)[C@H](O)[C@@H]2C[C@@H]21 [Compound 127, (1R,2R,3S,4R,5S)-4-(2-chloro-6-(4,5-difluoro-2-methoxybenzylamino)-9H-purin-9-yl)bicyclo[3.1.0]hexane-2,3-diol] | inhibition at 10 µM (hA1AR [1]): 41%; inhibition at 10 µM (hA2AAR): 30%
